Data taken from patent EP4273147A1, “SUBSTITUTED SPIROLACTAMS, SALTS THEREOF AND THEIR USE AS HERBICIDALLY ACTIVE SUBSTANCES” (Bayer Aktiengesellschaft, priority 2022, dated 2023).

Experiments:
[1] = test system: LOLRI; assay: Herbicidal post-emergence action (Table B5); format: in vivo, Lolium rigidum; details: application rate 1280 g/ha; rated visually after about 3 weeks
Method: (§1) Seeds of mono- and dicotyledonous weed plants were placed in plastic pots in sandy loam soil (doubly sown with in each case one species of mono- or dicotyledonous weed plants per pot), covered with soil and cultivated in a greenhouse under controlled growth conditions. 2 to 3 weeks after sowing, the test plants were treated at the one-leaf stage. […] After the test plants had been kept in the greenhouse under optimum growth conditions for about 3 weeks, the activity of the preparations was rated visually in comparison to untreated controls. For example, 100% activity = the plants have died, 0% activity = like control plants.

[2] = test system: AMARE; assay: Herbicidal pre-emergence action (Table A8); format: in vivo, Amaranthus retroflexus; details: application rate 1280 g/ha; visual grading after ca. 3 weeks vs untreated controls (100% = plants have died off, 0% = as control plants)
Outline: (§2)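 Weed seeds are sown into sandy loam in pots and covered with soil, with two species per pot, one monocot and one dicot.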

[3] = test system: VERPE; assay: Herbicidal post-emergence action (Table B10); format: in vivo, Veronica persica; details: application rate 320 g/ha
Outline: (§3)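 Weed seeds sown in sandy loam in pots (one mono- or dicot species per pot), grown in greenhouse; plants treated post-emergence at one-leaf stage, 2–3 weeks after sowing. After ~3 weeks, damage scored visually vs untreated controls (100% = plants dead, 0% = like controls).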

[4] = test system: AMARE; assay: Herbicidal post-emergence action (Table B11); format: in vivo, Amaranthus retroflexus; details: application rate 1280 g/ha
Outline: as §3

[5] = test system: ECHCG; assay: Herbicidal post-emergence action, section E (Table E5); format: in vivo, Echinochloa crus-galli; details: application rate 80 g/ha; assessed visually after ca. 3 weeks
Description: (§4) 2 to 3 weeks after sowing, the test plants were sprayed in the single-leaf stage.

[6] = test system: ECHCG; assay: Herbicidal pre-emergence action, section C (Table C6); format: in vivo, Echinochloa crus-galli; details: application rate 80 g/ha; visual grading after ca. 3 weeks
[7] = test system: POAAN; assay: Herbicidal post-emergence action (Table B7); format: in vivo, Poa annua; details: application rate 320 g/ha
Outline: as §3

[8] = test system: LOLRI; assay: Herbicidal pre-emergence action (Table A3); format: in vivo, Lolium rigidum; details: application rate 320 g/ha; visual grading after ca. 3 weeks
Outline: as §2

[9] = test system: MATIN; assay: Herbicidal post-emergence action (Table B6); format: in vivo, Matricaria inodora; details: application rate 1280 g/ha; rated visually after about 3 weeks
Outline: as §3

[10] = test system: SETVI; assay: Herbicidal pre-emergence action (Table A5); format: in vivo, Setaria viridis; details: application rate 320 g/ha; visual grading after ca. 3 weeks
Outline: as §2

[11] = test system: SETVI; assay: Herbicidal pre-emergence action, section C (Table C10); format: in vivo, Setaria viridis; details: application rate 80 g/ha; visual grading after ca. 3 weeks
Description: (§5) Seeds of mono- and dicotyledonous weed plants and crop plants were sown, in plastic or organic planting pots, in sandy loam and covered with soil. The compounds according to the invention, formulated in the form of wettable powders (WP) or as emulsifiable concentrates (EC), were applied to the surface of the covering soil as aqueous suspension or emulsion, with the addition of 0.5% of an additive, at an application rate of 600 1 of water/ha (converted). Following treatment, the pots were placed in a greenhouse and kept under optimum growth conditions for the test plants.

[12] = test system: ABUTH; assay: Herbicidal pre-emergence action (Table A1); format: in vivo, Abutilon theophrasti; details: application rate 320 g/ha; visual grading after ca. 3 weeks vs untreated controls (100% = plants have died off, 0% = as control plants)
Outline: as §2

[13] = test system: MATIN; assay: Herbicidal pre-emergence action, section C (Table C8); format: in vivo, Matricaria inodora; details: application rate 320 g/ha; visual grading after ca. 3 weeks
[14] = test system: TRZAS; assay: Post-emergence effects on crop plants (Table F2); format: in vivo, Triticum aestivum; details: application rate 80 g/ha, crop plant TRZAS
Description: as §4

[15] = test system: ORYZA; assay: Post-emergence effects on crop plants (Table F3); format: in vivo, Oryza sativa; details: application rate 320 g/ha, crop plant ORYZA
Description: as §4

[16] = test system: TRZAS; assay: Pre-emergence effects on crop plants (Table D2); format: in vivo, Triticum aestivum; details: crop plant; application rate 80 g/ha; visual grading after ca. 3 weeks
[17] = test system: POAAN; assay: Herbicidal pre-emergence action (Table A7); format: in vivo, Poa annua; details: application rate 320 g/ha; visual grading after ca. 3 weeks
Outline: as §2

[18] = test system: ZEAMX; assay: Post-emergence effects on crop plants (Table F1); format: in vivo, Zea mays; details: application rate 80 g/ha, crop plant ZEAMX
Description: as §4

[19] = test system: VERPE; assay: Herbicidal pre-emergence action, section C (Table C11); format: in vivo, Veronica persica; details: application rate 320 g/ha; visual grading after ca. 3 weeks
[20] = test system: BRSNW; assay: Pre-emergence effects on crop plants (Table D5); format: in vivo, Brassica napus; details: crop plant; application rate 80 g/ha; visual grading after ca. 3 weeks
[21] = test system: ALOMY; assay: Herbicidal pre-emergence action (Table A9); format: in vivo, Alopecurus myosuroides; details: application rate 320 g/ha; visual grading after ca. 3 weeks
Outline: as §2

[22] = test system: ORYZA; assay: Pre-emergence effects on crop plants (Table D3); details: crop plant; application rate 80 g/ha; visual grading after ca. 3 weeks
[23] = test system: ALOMY; assay: Herbicidal pre-emergence action, section C (Table C2); format: in vivo, Alopecurus myosuroides; details: application rate 320 g/ha; visual grading after ca. 3 weeks
[24] = test system: ALOMY; assay: Herbicidal post-emergence action (Table B2); format: in vivo, Alopecurus myosuroides; details: application rate 320 g/ha; rated visually after about 3 weeks
Method: as §1

[25] = test system: STEME; assay: Herbicidal pre-emergence action (Table A6); format: in vivo, Stellaria media; details: application rate 320 g/ha; visual grading after ca. 3 weeks
Outline: as §2

[26] = test system: ALOMY; assay: Herbicidal post-emergence action, section E (Table E2); format: in vivo, Alopecurus myosuroides; details: application rate 320 g/ha; assessed visually after ca. 3 weeks
Description: as §4

[27] = test system: LOLRI; assay: Herbicidal pre-emergence action, section C (Table C7); format: in vivo, Lolium rigidum; details: application rate 80 g/ha; visual grading after ca. 3 weeks
[28] = test system: VIOTR; assay: Herbicidal pre-emergence action, section C (Table C12); format: in vivo, Viola tricolor; details: application rate 80 g/ha; visual grading after ca. 3 weeks
[29] = test system: KCHSC; assay: Herbicidal pre-emergence action (Table A10); format: in vivo, Kochia scoparia; details: application rate 1280 g/ha; visual grading after ca. 3 weeks
Outline: as §2

[30] = test system: VERPE; assay: Herbicidal post-emergence action, section E (Table E9); format: in vivo, Veronica persica; details: application rate 320 g/ha; assessed visually after ca. 3 weeks
Description: as §4

[31] = test system: ECHCG; assay: Herbicidal pre-emergence action (Table A2); format: in vivo, Echinochloa crus-galli; details: application rate 320 g/ha; visual grading after ca. 3 weeks
Outline: as §2

[32] = test system: SETVI; assay: Herbicidal post-emergence action, section E (Table E8); format: in vivo, Setaria viridis; details: application rate 320 g/ha; assessed visually after ca. 3 weeks
Description: as §4

[33] = test system: BRSNW; assay: Post-emergence effects on crop plants (Table F5); format: in vivo, Brassica napus; details: application rate 80 g/ha, crop plant BRSNW
Description: as §4

[34] = test system: VERPE; assay: Herbicidal pre-emergence action (Table A11); format: in vivo, Veronica persica; details: application rate 320 g/ha; visual grading after ca. 3 weeks
Outline: as §2

[35] = test system: ABUTH; assay: Herbicidal post-emergence action (Table B1); format: in vivo, Abutilon theophrasti; details: application rate 1280 g/ha; treated at one-leaf stage; rated visually after about 3 weeks vs untreated controls (100% = plants have died, 0% = like control plants)
Outline: as §3

[36] = test system: ECHCG; assay: Herbicidal post-emergence action (Table B3); format: in vivo, Echinochloa crus-galli; details: application rate 320 g/ha; rated visually after about 3 weeks
Outline: as §3

[37] = test system: STEME; assay: Herbicidal post-emergence action (Table B9); format: in vivo, Stellaria media; details: application rate 1280 g/ha
Method: as §1

[38] = test system: SETVI; assay: Herbicidal post-emergence action (Table B8); format: in vivo, Setaria viridis; details: application rate 1280 g/ha
Outline: as §3

[39] = test system: POLCO; assay: Herbicidal pre-emergence action, section C (Table C9); format: in vivo, Polygonum convolvulus; details: application rate 320 g/ha; visual grading after ca. 3 weeks
Description: as §5

[40] = test system: GLXMA; assay: Post-emergence effects on crop plants (Table F4); format: in vivo, Glycine max; details: application rate 80 g/ha, crop plant GLXMA
Description: as §4

[41] = test system: ABUTH; assay: Herbicidal pre-emergence action, section C (Table C1); format: in vivo, Abutilon theophrasti; details: application rate 320 g/ha; visual grading after ca. 3 weeks
Description: as §5

[42] = test system: VIOTR; assay: Herbicidal post-emergence action, section E (Table E10); format: in vivo, Viola tricolor; details: application rate 320 g/ha; assessed visually after ca. 3 weeks
Description: as §4

[43] = test system: MATIN; assay: Herbicidal pre-emergence action (Table A4); format: in vivo, Matricaria inodora; details: application rate 320 g/ha; visual grading after ca. 3 weeks
Outline: as §2

O=C1N(Cc2ccccc2F)CCCC12CCCN(Cc1ccccc1F)C2=O (racemic) [I-005]
post-emergence activity against LOLRI [1]: 90% | pre-emergence activity against AMARE [2]: 90% | post-emergence activity against VERPE [3]: 90% | post-emergence activity against AMARE [4]: 100% | post-emergence activity against ECHCG [5]: 80% | pre-emergence activity against ECHCG [6]: 100% | post-emergence activity against POAAN [7]: 100% | pre-emergence activity against LOLRI [8]: 100% | post-emergence activity against MATIN [9]: 100% | pre-emergence activity against SETVI [10]: 100% | pre-emergence activity against SETVI [11]: 100% | pre-emergence activity against ABUTH [12]: 90% | pre-emergence activity against MATIN [13]: 90% | post-emergence activity against TRZAS [14]: 20% | post-emergence activity against ORYZA [15]: 0% | pre-emergence activity against TRZAS [16]: 20% | pre-emergence activity against POAAN [17]: 100% | post-emergence activity against ZEAMX [18]: 20% | pre-emergence activity against VERPE [19]: 80% | pre-emergence activity against BRSNW [20]: 0% | pre-emergence activity against ALOMY [21]: 90% | pre-emergence activity against ORYZA [22]: 20% | pre-emergence activity against ALOMY [23]: 100% | post-emergence activity against ALOMY [24]: 90% | pre-emergence activity against STEME [25]: 90% | post-emergence activity against ALOMY [26]: 90% | pre-emergence activity against LOLRI [27]: 80% | pre-emergence activity against VIOTR [28]: 80% | pre-emergence activity against KCHSC [29]: 90% | post-emergence activity against VERPE [30]: 80% | pre-emergence activity against ECHCG [31]: 100% | post-emergence activity against SETVI [32]: 90% | post-emergence activity against BRSNW [33]: 20% | pre-emergence activity against VERPE [34]: 100% | post-emergence activity against ABUTH [35]: 90% | post-emergence activity against ECHCG [36]: 100% | post-emergence activity against STEME [37]: 90% | post-emergence activity against SETVI [38]: 100% | pre-emergence activity against POLCO [39]: 80% | post-emergence activity against GLXMA [40]: 20% | pre-emergence activity against ABUTH [41]: 80% | post-emergence activity against VIOTR [42]: 80% | pre-emergence activity against MATIN [43]: 100%
